From the METLIN SMRT retention time set (Domingo-Almenara et al. 2019)

Test: gradient 5% acetonitrile 3 min, to 50% in 2 min, to 85% in 15 min, held 3 min, 100 µL/min
Conditions: column: Zorbax Extend-C18 2.1 x 50 mm; eluents: water / acetonitrile, 0.1% formic acid
Procedure, shortened: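 Values are retention times taken from adduct peaks that software picked and an analyst inspected. The pure standards were run as mixtures of ~100 molecules on HPLC linked to a quadrupole time-of-flight mass spectrometer, in positive and negative ionization mode. A Zorbax Extend-C18 column (2.1 × 50 mm, 1.8 μm) was used at 100 μL/min with water and acetonitrile, each including 0.1% formic acid.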

Row | SMILES | RP-LC retention time [s]
1 | O=C(C1CC(=O)N(c2ccc3c(c2)CCN3C(=O)C2CC2)C1)N1CCCC1 (configuration not stated) | 647
2 | CCC(Sc1ncnc2c1cnn2-c1ccc(F)cc1)C(=O)OC (configuration not stated) | 1170
3 | CC(C)c1noc(-c2ccnc(-n3cnc(C(=O)NC4CCCCCC4)c3)c2)n1 | 771
4 | CCOC(=O)c1ccc(Oc2ncnc(N)c2[N+](=O)[O-])cc1 | 769
5 | Cc1ccccc1OCC(=O)N1CCCC1c1nc(-c2cccc(Cl)c2)no1 (configuration not stated) | 1150
6 | Cc1nc(Nc2ccc(Br)cn2)sc1C(=O)N1CCN(C)CC1 | 606
7 | CCOC(=O)c1nc(Nc2ccc(OCC)cc2)c2ccccc2n1 | 806
8 | CCCc1noc(-c2ccc3nnc(CC(=O)NC4CCCCC4)n3c2)n1 | 826
9 | COc1ccc(-c2noc(C3CCCN3C(=O)Nc3cccc(C)c3)n2)cc1 (configuration not stated) | 830
10 | O=C(NCCc1c[nH]c2ccc(Cl)cc12)c1ccccc1Cl | 873
11 | O=C(C1CCC(=O)N1S(=O)(=O)c1ccccc1)N1CCN(C2CCCCC2)CC1 (configuration not stated) | 619
12 | CCOC(=O)c1cccc(N2C=C(C#N)S(=O)(=O)c3ccc(F)cc32)c1 | 939
13 | CC(C)c1csc(-c2csc(S(=O)(=O)NCc3ccc4c(c3)OCO4)c2)n1 | 1050
14 | COC(=O)c1c(NCC(C)O)c2cccc(Cl)c2[nH]c1=O (configuration not stated) | 610
15 | COc1cccc(-c2noc(Cc3nnc(-c4ccc(C)c(C)c4)o3)n2)c1OC | 1060
16 | Cn1c(C(N)=O)c(N2CCCC2=O)c2cc(F)ccc21 | 669
17 | CCOC(=O)c1cc(C)nc2c1c(=O)n(Cc1cccc(C(F)(F)F)c1)c(=O)n2C | 1150
18 | Cc1cc(C)cc(N2CCC(N)C2=O)c1 (configuration not stated) | 605
19 | COc1ccc(NC(=O)N2CCc3[nH]cnc3C2c2ccccn2)cc1OC (configuration not stated) | 568
20 | O=C(Nc1ccccc1)N1CCCC1c1nc(-c2cccc(Cl)c2)no1 (configuration not stated) | 1030
21 | CC(C)c1cc(C(=O)N2CCOCC2)nc2ccnn12 | 637
22 | COc1ccc(-c2cc3nc(C)cc(N4CCN(c5ccccn5)CC4)n3n2)cc1OC | 583

Row | SMILES | RP-LC retention time [s]
23 | Cc1ccc(F)c(Nc2ncccc2S(N)(=O)=O)c1 | 826
24 | Cc1ccc2nc(N3CCN(C(=O)C(C)(C)C)CC3)c(-c3noc(-c4ccccc4)n3)cc2c1 | 1370
25 | CC1=C/C(=C2/N=C(N(C)C)SS2)C(C)=N1 | 611
26 | CCC1CN(C(=O)N2CCC(C(=O)NCCN3CCN(C)CC3)CC2)c2cc(C)ccc2O1 (configuration not stated) | 619
27 | Cc1noc(-c2ccc(=O)n(Cc3ccccc3C)n2)n1 | 851
28 | Cc1ccc(-c2noc(-c3cccc(S(=O)(=O)Nc4ccccn4)c3)n2)cc1 | 935
29 | O=C(NC1CC1)C1CCCN(S(=O)(=O)c2cc(-c3noc(C4CCCC4)n3)cs2)C1 (configuration not stated) | 972
30 | COc1cc2c(CCNC(C)=O)c[nH]c2cc1Cl | 754
31 | COCCN1C(=O)CCC2(CNC(=O)c3sccc3C)CCCC=C12 (configuration not stated) | 804
32 | Cn1c(CN2CCN(C(=O)c3cccs3)CC2)nc2cc(C(=O)N3CCCC3)ccc21 | 597
33 | O=C(C1CCCN(c2cnc3nccnc3c2)C1)N1CCN(c2ccccc2F)CC1 (configuration not stated) | 778
34 | COCCN1CCC2(CC1)CN(Cc1ccccc1OC(C)C)Cc1ccccc1O2 | 611
35 | Cc1cc(Cl)ccc1NC1=NS(=O)(=O)c2ccccc21 | 834
36 | CCN(CCCNC(=O)Cn1ccc2c(=O)n(C)c(=O)n(C)c21)c1ccccc1 | 578
37 | Cn1nccc1-c1csc(S(=O)(=O)NC2CC2)c1 | 713
38 | CCNC(=O)c1nc(C(=O)NC2CCCCC2)cs1 | 783
39 | O=C(N1CCC(c2nc(-c3ccccc3)no2)C1)C1(c2ccccc2)CC1 (configuration not stated) | 994
40 | Cc1cc2c(=O)n(CC(=O)Nc3cc(Cl)ccc3C)ccc2s1 | 847
41 | O=C(Nc1ccc2c(c1)OCCO2)N1CCc2nc(-c3ccccc3)ncc2C1 | 848
42 | CCn1c(SCC(=O)Nc2ccccc2C(F)(F)F)nc2c(c1=O)SC(C)C2 (configuration not stated) | 854
43 | NC(=O)c1cnc(-c2ccccc2)n(CC(=O)Nc2ccccc2Br)c1=O | 740
44 | Cc1cc(C)n(-c2cc(N3CCN(c4nc(-c5ccccc5)cs4)CC3)ccc2[N+](=O)[O-])n1 | 1190

Further lines, results first:

Row | RP-LC retention time [s] | SMILES
45 | 839 | Cc1c(C(=O)N2CCN(C(=O)c3ccc(Br)o3)CC2)[nH]c2ccccc12
46 | 777 | COc1cc(C(=O)NCCOc2ccc(F)cc2)c([N+](=O)[O-])cc1OC
47 | 834 | COc1ccccc1OCCNC(=O)c1ccc2c(=O)n(-c3ccccc3)c(N3CCCC3)nc2c1
48 | 1180 | CCc1ccccc1NC(=O)Cn1nc(N2CCCC(C)C2)c2ccccc2c1=O (configuration not stated)
49 | 893 | Cc1ccc(CC(=O)NC2CCN(c3cc(C)cc(C)c3)C2=O)cc1 (configuration not stated)
50 | 1380 | CCOc1ccc(OCC)c(NC(=O)C2CCN(c3nccnc3Sc3ccc(C)cc3)CC2)c1
51 | 964 | Cc1cc(-c2nnc(-c3ccc(F)cc3)o2)c(C)n1CC(=O)Nc1ccc(F)cc1
52 | 985 | O=C(Nc1ccc(F)c(F)c1)c1cnc(-c2ccc(F)cc2)nc1-c1ccncc1
53 | 1010 | COc1ccc(S(=O)(=O)N2CC=C(c3cn(C)c4ncccc34)CC2)cc1Cl
54 | 682 | CCCNC(=O)C1CCN(c2ccc(SCC(=O)Nc3ccc(F)cc3Cl)nn2)CC1
55 | 748 | CN(C)S(=O)(=O)N1CCC(n2c(Cc3ccccc3)nn(C)c2=O)CC1
56 | 806 | COCCn1cc(CCNC(=O)Nc2ccc(Cl)cc2F)c2cccnc21
57 | 849 | COc1ccc(-n2c(=O)n(C)c(=O)c3cc(C(=O)NCc4ccccc4)cnc32)cc1
58 | 797 | O=C(CCc1nc2ccccc2n(CC(=O)Nc2ccc3c(c2)OCO3)c1=O)NCc1ccccc1
59 | 645 | Cc1oc(-c2ccc(C(=O)NCCCN3CCN(C)CC3)cc2)nc1CSc1ccccc1
60 | 1050 | O=C(NCCC1=CCCCC1)C(=O)Nc1ccc(Cl)cn1
61 | 1170 | CCCn1ccc2oc(C)c(C(=O)NCc3ccc(CC)cc3)c2c1=O
62 | 852 | O=C(NCCC1CCN(S(=O)(=O)c2ccc(F)cc2)CC1)NCc1ccc(F)cc1
63 | 704 | O=C(NCCn1nnc2cc(C(=O)N3CCCC3)ccc21)Nc1ccc(Br)cc1
64 | 665 | CCCN1CCn2cc(C(=O)NCc3ccc(C(C)C)cc3)nc2C1
65 | 678 | COc1cc(=O)c(C(=O)Nc2ccc(S(N)(=O)=O)cc2)nn1-c1ccc(F)cc1
66 | 1210 | COc1cccc(-c2nc(C3CCN(S(=O)(=O)c4cc(C)ccc4C)CC3)no2)c1
67 | 733 | CCOc1ccccc1NC(=O)NCCc1cn(C)c2ncccc12
